Reference: patent US20130101582A1, “Tiki1 and Tiki2, Wnt Inhibitors” (CHILDREN'S MEDICAL CENTER CORPORATION, priority 2010, published 2013)

Tests used:
Tiki1 expression = assay: Regulation of Tiki1 and Dkk1 expression by maternal Wnt signaling, RT-PCR; type: in vivo; details: Xenopus embryos, RT-PCR at stage 10.5
Procedure: FIG. 3C is a gel showing that Tiki1 expression is regulated by maternal Wnt signaling. Whole embryos were used for LiCl or UV treatment. 20 or 40 pg of Xwnt8 mRNA was injected into ventral marginal zone (VMZ) at 4 to 8-cell stage and VMZ was dissected at stage 10.5 for RT-PCR. ΔNTCF mRNA (1 or 2 ng) was injected into dorsal marginal zone (DMZ) at 4 to 8-cell stage and DMZ was dissected at stage 10.5 for RT-PCR. Con: control.
SO formation requires maternal Wnt/β-catenin signaling (De Robertis, E. M. et al., Annu Rev Cell Dev Biol 20, 285-308 (2004); Harland, R. et al., Annu Rev Cell Dev Biol 13, 611-667 (1997)), which we found is necessary and sufficient for Tiki1 (and Dkk1) expression.

Xenopus embryos [1] = assay: Tiki1MO anterior development/head formation phenotype; type: in vivo; details: 20 ng injected into two dorsal blastomeres of 8-cell stage embryos
Procedure: (§1) 20 ng of Tiki1MO was injected into two dorsal blastomeres of 8-cell stage embryos.

Xenopus embryos [2] = assay: Organizer gene expression in morpholino-injected whole Xenopus embryos (Table 1); type: in vivo; design: Whole embryos displaying change in gene expression: Reduced, Percentage (%): concentration or dose not given beside the values
Procedure: (§2) A functional cDNA expression screen was performed using arrayed Xenopus cDNAs to identify novel genes involved in AP patterning and Wnt signaling. Procedures for embryo manipulation, reverse transcription PCR and in situ hybridization were performed as previously described (Tamai, K. et al., Nature 407, 530-535 (2000)). The Arrayed Xenopus tropicalis full length cDNAs were used for the screening as performed previously (Kato, Y. et al., Nature 418, 641-646 (2002)). cDNA pools (in the CS107 vector) that contain 96 independent clones were transcribed in vitro using SP6 polymerase, and the resulting mRNA pools were injected into the dorsal side of the embryo at 4-cell stage at the dose of 10 ng RNA/embryo. Injected embryos were scored at stage 30-31 for enlarged or diminished anterior development. The positive pools were divided into smaller pools and the same process was repeated until a single cDNA was identified.
HA-Tiki1 mRNA injection rescued the effect of Tiki1MO on all head organizer genes examined (Table 1).

Xenopus embryos [3] = assay: Anterior neural marker expression in morpholino-injected whole embryos (Table 2); type: in vivo; details: stage 16
Procedure: as §2
The specific expression in and the requirement for the formation of the head organizer imply Tiki1 function in anterior neural patterning. Tiki1MO was injected with fluorescein dextran (FLD, as a lineage tracer) into one dorsal-animal blastomeres at the 8-cell stage and analyzed expression of anterior neural markers at stage 16. Tiki1 MO suppressed the expression of, in the injected half of the embryo, forebrain marker BF1 and Otx2 (Table 2). […] HA-Tiki1 mRNA injection rescued the expression of BF1, Otx2, and En2 in Tiki1MO-injected embryos (Table 2).

[4] = system: Xenopus Tiki1 protein synthesis; assay: Tiki1 protein synthesis in embryos with morpholino, Western blotting of animal caps; type: in vivo
Procedure: FIG. 4A is a gel showing that Xenopus Tiki1 protein synthesis is specifically targeted by an antisense morpholino oligonucleotide (MO). 500 pg mRNA for Tiki1-FLAG (targeted by MO) or HA-Tiki1 (resistant to MO) were injected with or without the Tiki1MO (5, 10, 20, 40 ng) into the animal pole at the 2-cell stage, and animal caps were dissected at stage 10 for Western blotting.
as §1

[5] = target: Recombinant human WNT3A protein (Homo sapiens, UniProt P56704); assay: In vitro incubation of recombinant WNT3A with purified protein, Triton X-114 phase separation; type: biochemical; details: purified protein incubated with recombinant human WNT3A
Recombinant human WNT3A protein, sequence (P56704 19-352): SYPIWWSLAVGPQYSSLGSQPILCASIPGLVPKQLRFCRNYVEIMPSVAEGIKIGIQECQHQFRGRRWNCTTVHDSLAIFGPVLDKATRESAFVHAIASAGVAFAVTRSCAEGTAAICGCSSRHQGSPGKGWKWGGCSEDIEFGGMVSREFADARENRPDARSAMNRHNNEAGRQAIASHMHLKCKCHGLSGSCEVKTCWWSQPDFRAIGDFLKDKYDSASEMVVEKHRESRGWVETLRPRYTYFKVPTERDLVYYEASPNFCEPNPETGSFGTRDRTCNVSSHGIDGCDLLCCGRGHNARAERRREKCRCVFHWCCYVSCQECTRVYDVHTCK
Procedure: FIG. 6G is a gel showing that recombinant WNT3A was incubated with Krm2N or Tiki2N purified from WCL (top) or from CM (bottom) and was subjected to Triton X-114 phase separation.
FIG. 6H is a gel showing that Recombinant WNT3A was incubated with Krm2N or Tiki2N or Tiki2NΔ. purified from WCL and was subjected to Triton X-114 phase separation.
Recombinant human Tiki2N, which is the ectodomain harboring the conserved Tiki domain (FIG. 6J), was purified, via tandem affinity procedures from HEK293T cell extracts or CM.

Wnt3a signaling = assay: TOPFLASH reporter assay, Wnt3a co-transfected with Tiki1 or Tiki2 in HEK293T cells; type: cell-based, human
From the text: Wnt3a and Tiki1 or Tiki2 were co-transfected. The TOPFLASH reading (normalized to Renilla) in Wnt3a alone was set as 100. DNA transfection amounts are shown per well in a standard 24-well plate format. Representative data from one of three independent experiments is shown.
The enlarged head phenotype by Tiki1 overexpression is indistinguishable from that by overexpression of Dkk1, a Wnt/LRP6 antagonist (MacDonald, B. T. et al., Dev Cell 17, 9-26 (2009); Glinka, A. et al., Nature 391, 357-362 (1998)). […] Thus Tiki1 likely acts at or upstream of Wnt receptors. […] Xenopus Tiki2, and human Tiki1 and Tiki2 also behaved as Wnt antagonists in Xenopus embryos, HEK293T cells (FIG. 2C) and mouse L cells (FIG. 5A).

[6] = gene Chd, stage 10.5, injected in two dorsal blastomeres at 8-cell stage
[7] = gene Gsc st.13 (prechordal plate, neurula stage)

## [Cl-].[Li+] [LiCl]
Tiki1 expression
  Tiki1 and Dkk1 expression: induced Tiki1 and Dkk1 expression

## Tiki1 MO: morpholino antisense oligonucleotide against Tiki1, 5′-CCAAATGATTACCATCATAGCTCAG-3′ (SEQ ID NO:13) (all phosphorodiamidate morpholino (PMO))
Xenopus embryos [1]
  Injected embryos that developed anterior defects: roughly 50%
Xenopus embryos [2]; [6]
  Whole embryos displaying change in gene expression: Absent, Percentage (%): 0%
  Whole embryos displaying change in gene expression: NC (No Change), Percentage (%): 64%
  Whole embryos displaying change in gene expression: Reduced, Percentage (%): 36%
Xenopus embryos [2]; gene Dkk1, stage 10.5
  Whole embryos displaying change in gene expression: Absent, Percentage (%): 25%
  Whole embryos displaying change in gene expression: NC (No Change), Percentage (%): 35%
  Whole embryos displaying change in gene expression: Reduced, Percentage (%): 40%
Xenopus embryos [2]; [7]
  Whole embryos displaying change in gene expression: Absent, Percentage (%): 35%
  Whole embryos displaying change in gene expression: NC (No Change), Percentage (%): 33%
  Whole embryos displaying change in gene expression: Reduced, Percentage (%): 32%
Xenopus embryos [2]; gene Gsc, stage 10.5
  Whole embryos displaying change in gene expression: Absent, Percentage (%): 0%
  Whole embryos displaying change in gene expression: NC (No Change), Percentage (%): 34%
  Whole embryos displaying change in gene expression: Reduced, Percentage (%): 66%
Xenopus embryos [2]; gene Lim1, stage 10.5
  Whole embryos displaying change in gene expression: Absent, Percentage (%): 28%
  Whole embryos displaying change in gene expression: NC (No Change), Percentage (%): 18%
  Whole embryos displaying change in gene expression: Reduced, Percentage (%): 54%
Xenopus embryos [2]; gene Otx2, stage 10.5
  Whole embryos displaying change in gene expression: Absent, Percentage (%): 7%
  Whole embryos displaying change in gene expression: NC (No Change), Percentage (%): 33%
  Whole embryos displaying change in gene expression: Reduced, Percentage (%): 60%
Xenopus embryos [2]; gene Xnot, stage 10.5
  Whole embryos displaying change in gene expression: Absent, Percentage (%): 0%
  Whole embryos displaying change in gene expression: NC (No Change), Percentage (%): 87%
  Whole embryos displaying change in gene expression: Reduced, Percentage (%): 13%
Xenopus embryos [2]; gene Xnr3, stage 10.5
  Whole embryos displaying change in gene expression: Absent, Percentage (%): 0%
  Whole embryos displaying change in gene expression: NC (No Change), Percentage (%): 93%
  Whole embryos displaying change in gene expression: Reduced, Percentage (%): 7%
Xenopus embryos [3]; gene BF1
  Whole embryos displaying change in gene expression: NC (No Change), Percentage (%): 14%
  Whole embryos displaying change in gene expression: Reduced, Percentage (%): 23%
  Whole embryos displaying change in gene expression: increased, Percentage (%): 0%
Xenopus embryos [3]; gene BF1, injected into one dorsal-animal blastomere at 8-cell stage
  Whole embryos displaying change in gene expression: Absent, Percentage (%): 63%
Xenopus embryos [3]; gene En-2
  Whole embryos displaying change in gene expression: Absent, Percentage (%): 40%
  Whole embryos displaying change in gene expression: NC (No Change), Percentage (%): 35%
  Whole embryos displaying change in gene expression: Reduced, Percentage (%): 25%
  Whole embryos displaying change in gene expression: increased, Percentage (%): 0%
Xenopus embryos [3]; gene HoxB9
  Whole embryos displaying change in gene expression: Absent, Percentage (%): 0%
  Whole embryos displaying change in gene expression: NC (No Change), Percentage (%): 100%
  Whole embryos displaying change in gene expression: Reduced, Percentage (%): 0%
  Whole embryos displaying change in gene expression: increased, Percentage (%): 0%
Xenopus embryos [3]; gene Otx2
  Whole embryos displaying change in gene expression: Absent, Percentage (%): 35%
  Whole embryos displaying change in gene expression: NC (No Change), Percentage (%): 35%
  Whole embryos displaying change in gene expression: Reduced, Percentage (%): 30%
  Whole embryos displaying change in gene expression: increased, Percentage (%): 0%
[4]; HA-Tiki1 mRNA lacks the MO complementary sequence
  Synthesis of HA-Tiki1: unable to block the synthesis
[4]; Tiki1-FLAG mRNA targeted by MO, animal caps stage 10
  Synthesis of exogenously expressed Tiki1 (Tiki1-FLAG): specifically blocked the synthesis

B1: Tiki2NΔ: deletion mutant lacking a segment of the Tiki domain, inactive in modifying WNT3A (protein)
chain: RPQPPDGGQCRPPGSQRDLNSFLWTIRRDPPAYLFGTIHVPYTRVWDFIPDNSKAAFQASTRVYFELDLTDPYTISALASCQLLPHGENLQDVLPHELYWRLKRHLDYVKLMMPSWMTPAQRGKGLYADYLFNAIAGNWERKRPVWVMLMVNSLTERDVRFRGVPVLDLYLAQQAEKMKKTTGAVEQVEEQCHPLNNGLNFSQVLFALNQTLLQQESVRAGSLQASYTTEDLIKHYNCGDLSAVIFNHDTSQLPNFINTTLPPHEQVTAQEIDSYFRQELIYKRNERMGKRVMALLRENEDKICFFAFGAGHFLGNNTVIDILRQAGLEVDHTPAGQAIHSPAPQSPAPSPEGTSTSPAPVTPAAAVPEAPSVTPTAPPEDEDPALSPHLLLPDSLSQLEEFGRQRKWHKRQSTHQRPRQFNDLWVRIEDSTTASPPPLPLQPTHSSGTAKPPFQLSDQLQQQDPPG
modifications: left off: small tags and cut ends
[5]
  Partitioning of WNT3A in Triton X-114 phase separation after in vitro incubation: remained in the detergent phase

B2: Human Tiki1: Human Tiki1 (Q86V40/LOC129293) (SEQ ID NO:1), expressed by transfection (protein, listed as Homo sapiens)
chain: MSPWSWFLLQTLCLLPTGAASRRGAPGTANCELKPQQSELNSFLWTIKRDPPSYFFGTIHVPYTRVWDFIPDNSKEAFLQSSIVYFELDLTDPYTISALTSCQMLPQGENLQDVLPRDIYCRLKRHLEYVKLMMPLWMTPDQRGKGLYADYLFNAIAGNWERKRPVWVMLMVNSLTEVDIKSRGVPVLDLFLAQEAERLRKQTGAVEKVEEQCHPLNGLNFSQVIFALNQTLLQQESLRAGSLQIPYTTEDLIKHYNCGDLSSVILSHDSSQVPNFINATLPPQERITAQEIDSYLRRELIYKRNERIGKRVKALLEEFPDKGFFFAFGAGHFMGNNTVLDVLRREGYEVEHAPAGRPIHKGKSKKTSTRPTLSTIFAPKVPTLEVPAPEAVSSGHSTLPPLVSRPGSADTPSEAEQRFRKKRRRSQRRPRLRQFSDLWVRLEESDIVPQLQVPVLDRHISTELRLPRRGHSHHSQMVASSACLSLWTPVFWVLVLAFQTETPLL
Wnt3a signaling
  Wnt3a signaling, TOPFLASH reporter: inhibit Wnt3a signaling

B3: KrmN: control recombinant protein, ectodomain of the transmembrane Kremen protein (protein, UniProt Q8NCW0 26-364, looked up)
extracellular domain: GSLHSPGLSECFQVNGADYRGHQNRTGPRGAGRPCLFWDQTQQHSYSSASDPHGRWGLGAHNFCRNPDGDVQPWCYVAETEEGIYWRYCDIPSCHMPGYLGCFVDSGAPPALSGPSGTSTKLTVQVCLRFCRMKGYQLAGVEAGYACFCGSESDLARGRLAPATDCDQICFGHPGQLCGGDGRLGVYEVSVGSCQGNWTAPQGVIYSPDFPDEYGPDRNCSWALGPPGAALELTFRLFELADPRDRLELRDAASGSLLRAFDGARPPPSGPLRLGTAALLLTFRSDARGHAQGFALTYRGLQDAAEDPEAPEGSAQTPAAPLDGANVSCSPRPGAPPAA
modifications: extracellular domain
[5]
  Partitioning of WNT3A in Triton X-114 phase separation after in vitro incubation: remained in the detergent phase
